Test results taken from US20240158453A1, “Nucleic Acids That Manipulate Immune Pathways” (Children`s Medical Center Corporation, priority 2017, published 2024).
Starred links: 1 amine or outer side, 2 acyl side, 3 side chain; linkers in the order of their positions; H or OH if unused. Positions of bridges follow the written chain, without caps; N, C: chain ends. Non-standard residues stand in square brackets, D forms with d. Residues, ends and D or L forms follow the SMILES beside them. Chains are numbered I, II in the order given. *: point of attachment. Actinocin(9to1) = Cc1c2oc3c(C)ccc(C(=O)[*:1])c3nc-2c(C(=O)[*:2])c(N)c1=O; NMeV = CN[C@H](C(=O)O)C(C)C; Cbz = O=C(OCc1ccccc1)*; Sar = CNCC(=O)O; CH2F = FC*

Assays:
glycolysis = assay: 2-DG treatment of TLR-activated cells (Example 6); assay type: cell-based
primary BMDMs [1] = assay: Seahorse metabolic analysis (ECAR, OCR) of TLR-induced glycolysis; assay type: cell-based; settings: for TLR-induced ECAR increase: primary BMDMs with inhibitor (2-DG 25 mM; Actinomycin D 1.5 μg/ml; BX795 5 μM; MRT67307 2.5 μM; Triciribine 20 μM), stimulated with LPS, P3C, R848; for ECAR / mitochondrial oxygen consumption (OCR): primary BMDMs or iBMDMs stimulated with the TLR ligand
Experimental: Seahorse Metabolic Analysis. Extracellular acidification rate (ECAR) and oxygen consumption rate (OCR) were measured with a Seahorse XFe96 Extracellular Flux Analyzer instrument primary BMDMs and iBMDMs
For real-time experiment, primary BMDMs (5×10^4 per well) and iBMDMs (7.5×10^4 per well) were seed in a Seahorse 96 well plate in complete DMEM medium. Cells were allowed to attach to the assay plate for 4-5 hours, then cells were washed one time with serum-free Seahorse Assay Medium and incubated in Seahorse Assay Medium containing 5% FBS, 10 mM Glucose and 2 mM Glutammine in 37° C. incubator without CO2 for 60 min. ECAR and OCR was measured under basal conditions, after treatment with TLR ligands (LPS 1 μg/ml; P3C 1 μg/ml; R848 1 μg/ml) or inhibitors (and their combination). In the assays which required pre-treatment with inhibitors, chemical inhibitors were injected into the wells by the Seahorse Analyzer, and the incubation time were allowed to proceed for 45 min, prior to the injection of TLR ligands. […] Data represent mean±SEM of triplicate wells.

[2] = system: Myd88-/-/Trif-/- iBMDMs expressing MyD88-RIP3; assay: Microscopy imaging of cell morphology; assay type: cell-based, murine
Experimental: Microscopy imaging of cell morphology and live cell imaging. To determine cell morphology after TLR stimulation, Myd8^−/−/Trif^−/− iBMDMs expressing MyD88 and MyD88-RIP3 were seeded in 12-well plates (0.5×10^6 per well) and were subjected to indicated treatments (Staurosporine 1 μM; TLR ligands 1 μg/ml) to induce cell death. For static image capture, a Nikon Eclipse TS100 microscope was used with 40× magnification. Images were processed with the “NIS-Elements F” software. Representative images were chosen from at least three randomly chosen fields from one representative experiment of three independent experiments.

Myd88-/-/Trif-/- iBMDMs = assay: PI staining and LDH release quantification (TLR-induced necroptosis); assay type: cell-based, murine; settings: MyD88-RIP3 expressing cells; GSK872 2.5 μM; Nec-1 5 μM; ZVAD 10 μM
Experimental: (§1) PI staining and LDH release quantification. For experiments measuring end-point PI staining, PI (5 μM) was included in the culture media to monitor transient pore formation at the last 30 min for each incubation period. A Tecan plate reader was used to measure PI staining (excitation 535 nm, emission 617 nm). Supernatants were assayed for LDH release freshly after stimulation time courses using the Pierce LDH cytotoxicity colorimetric assay kit per the manufacturer's instruction. The same Tecan plate reader was used to measure LDH release (absorbance 490 nm and 680 nm). Cells treated with detergent-containing lysis buffer were used as positive control for PI staining, the resulted supernatants from treated cells were used as positive control for LDH release quantification.
Generation of synthetic MyD88 molecules. To generate MyD88-NpLxIS and MyD88 CpLxIS alleles, the cDNA sequence encoding the STING pLxIS motif (340-378 a.a.) was fused in tandem then attached to the cDNA sequence encoding the MyD88 protein either at the 5-prime end (for MyD88-NpLxIS) or at the 3-prime end (for MyD88-CpLxIS). The fusion cDNAs were then synthesized as gBLOCKs via IDT. The mutant alleles were also synthesized as gBLOCKs. To generate the MyD88-RIP3 allele, the cDNA sequence encoding the full-length RIP3 was attached the MyD88-encoding cDNA sequence at the 3-prime end. The fusion cDNA was then synthesized as a gBLOCK via IDT. All synthetic DNA sequences were optimized to avoid internal repeats and for optimal expression in murine cells via the IDT online program.

primary BMDMs [3] = assay: LDH release from primary BMDMs stimulated with LPS in the presence of inhibitors; assay type: cell-based; settings: 18 hr
Experimental: as §1

TBK1 = assay: Western analysis of TBK1 activation in primary BMDMs stimulated with TLR ligands; assay type: cell-based
Experimental: (§2) Western blotting and immunoprecipitation. For western analysis of signaling pathway activation, primary BMDMs (1×10^6) or iBMDMs (0.5×10^6) were seeded in 12 well plates and stimulated with ligands for indicated periods, and subsequently lysed in 300 μl 1×SDS containing 8 M UREA. Lysates were incubated at 65° C. for 15 min. Before SDS-PAGE separation, lysates were passed through a BD 1 ml sub-Q syringe attached to a 26G needle to reduce viscosity. 15 μl of individual samples (15-20 μg protein from whole cell extract) were separated by SDS-PAGE followed by western analysis.

AKT = assay: Western analysis of AKT phosphorylation in primary BMDMs stimulated with TLR ligands; assay type: cell-based; settings: primary WT BMDMs
Experimental: as §2

[4] = system: Il-1b and Il-6 transcripts; assay: qPCR of TLR-induced Il-1b and Il-6 transcripts in primary BMDMs; assay type: cell-based; settings: primary BMDMs pretreated with ActD 1.5 μg/ml for 40 min, TLR ligands 4 h
Experimental: (§3) Gene expression analysis and ELISA. RNA was isolated from cell cultures using Qiashedder (Qiagen) and GeneJET RNA Purification Kit (Life Technologies). Purified RNA was analyzed for gene expression on a CFX384 real time cycler (Bio-rad) using TaqMan RNA-to-CT 1-Step Kit (Applied Biosystems) with probes specific for Rsad2, II-1b, Il-6 and Gapdh.

PARP = PARP cleavage by western analysis; assay type: cell-based, murine; settings: Myd88-/-/Trif-/- iBMDMs expressing MyD88-RIP3, TLR ligands or staurosporine 1 μM, 6 hr
Experimental: as §2

myddosome = molecular target: T1, myddosome (UniProt P0AES6+P22366); assay: Coumermycin-induced myddosome formation in Myd88-/-/Trif-/- iBMDMs expressing 3×FLAG-MyD88-GyrB; assay type: cell-based, murine; settings: CM 0.5 μM
T1 construct: expressed in transfected cells; host or cells: Myd88-/-/Trif-/- iBMDMs, retroviral transduction (pMSCV-IRES-GFP)
Experimental: as §3
For myddosome isolation, iBMDMs (5×10^6) were stimulated with ligands for indicated times, and subsequently lysed in 400 μL of lysis buffer containing 50 mM Tris-HCl (pH 7.5), 150 mM NaCl, 5% Glycerol, 1 mM Sodium dioxycholate and 1% NP40. Protease inhibitors and phosphatase inhibitors were added prior to cell lysis. Lysates were spun at top speed for 15 minutes at a table-top centrifuge in the cold room (at 4° C.). The cleared supernatants were collected and 80 μL of the supernatants was saved as sample inputs. 0.5 μg of the anti-MyD88 antibody with 15 15 μl (bed volume) of protein G sepharose (for endogenous MyD88) or 15 μl (bed volume) of anti-FLAG (M2) agarose (for 3×FLAG-MyD88 alleles) was added to the remaining supernatants and the incubation were allowed to proceed for 4-5 hr at 4° C. on a nutator. The beads containing the protein complexes were then washed for 3 times with lysis buffer, and 60 μL of SDS loading buffer was added. The protein complexes were further eluted by heating at 65° C. for 15 minutes. A portion of eluted protein complexes (20 μl) were separated by SDS-PAGE and analyzed by western blot.
Cells were fixed at room temperature for 30 min, permeabilized with 0.2% Triton X-100 for 5 min at room temperature and […] with 2% goat serum in PBS supplemented with 50 mM ammonium chloride. Primary and secondary antibody staining were performed following product instructions. Working concentrations of primary antibodies were used as the following: pTBK1 (1:100), pp 38 (1:100), FLAG (M2) (1:100). Samples were imaged by the Zeiss 880 laser scanning confocal microscope.

IRF3 = assay: Western analysis of IRF3 activation in primary BMDMs stimulated with TLR ligands; assay type: cell-based
Experimental: as §2

TLR4 = molecular target: T2, TLR4 (Mus musculus, UniProt Q9JHF9+Q9QUK6); assay: Isolation of protein complexes associated with activated TLR4; assay type: cell-based; settings: iBMDMs, LPS 100 ng/ml, within minutes
T2 construct: endogenous in cells; host or cells: WT iBMDMs
T2 sequence (Q8R4K2 whole entry): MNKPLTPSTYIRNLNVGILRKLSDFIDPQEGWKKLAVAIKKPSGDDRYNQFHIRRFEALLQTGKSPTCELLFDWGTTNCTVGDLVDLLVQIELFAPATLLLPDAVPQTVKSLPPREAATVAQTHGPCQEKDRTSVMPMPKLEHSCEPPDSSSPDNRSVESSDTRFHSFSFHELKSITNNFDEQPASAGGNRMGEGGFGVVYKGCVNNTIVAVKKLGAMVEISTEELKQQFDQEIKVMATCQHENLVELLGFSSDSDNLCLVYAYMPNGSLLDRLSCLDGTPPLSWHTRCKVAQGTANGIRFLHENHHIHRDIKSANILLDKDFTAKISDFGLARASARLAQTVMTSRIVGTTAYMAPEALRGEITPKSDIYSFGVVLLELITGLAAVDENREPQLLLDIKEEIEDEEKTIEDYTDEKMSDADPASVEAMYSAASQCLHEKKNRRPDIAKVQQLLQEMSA
T2 sequence (Q9QUK6 26-835): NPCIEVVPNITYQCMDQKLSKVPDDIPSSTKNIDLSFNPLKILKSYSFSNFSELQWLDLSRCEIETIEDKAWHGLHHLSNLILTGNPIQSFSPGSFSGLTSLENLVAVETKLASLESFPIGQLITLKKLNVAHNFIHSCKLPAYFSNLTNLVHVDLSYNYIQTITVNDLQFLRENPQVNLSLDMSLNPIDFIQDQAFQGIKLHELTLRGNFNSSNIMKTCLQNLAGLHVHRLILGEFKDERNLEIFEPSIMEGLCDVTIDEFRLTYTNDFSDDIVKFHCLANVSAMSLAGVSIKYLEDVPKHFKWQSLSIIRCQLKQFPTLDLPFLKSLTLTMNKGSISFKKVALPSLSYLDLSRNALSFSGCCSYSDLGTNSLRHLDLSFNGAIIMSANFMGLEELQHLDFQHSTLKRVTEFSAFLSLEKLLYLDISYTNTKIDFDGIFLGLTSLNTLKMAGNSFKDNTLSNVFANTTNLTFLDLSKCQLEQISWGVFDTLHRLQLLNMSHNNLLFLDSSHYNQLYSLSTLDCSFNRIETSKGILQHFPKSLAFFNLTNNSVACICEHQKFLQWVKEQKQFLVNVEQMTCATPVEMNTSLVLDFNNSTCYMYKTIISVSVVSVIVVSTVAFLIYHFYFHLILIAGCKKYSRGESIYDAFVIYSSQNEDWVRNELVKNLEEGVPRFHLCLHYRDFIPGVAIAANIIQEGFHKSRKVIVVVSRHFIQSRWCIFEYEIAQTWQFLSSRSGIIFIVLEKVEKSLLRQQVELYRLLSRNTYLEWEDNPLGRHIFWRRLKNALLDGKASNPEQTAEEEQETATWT
T2 sequence (Q9JHF9 19-160): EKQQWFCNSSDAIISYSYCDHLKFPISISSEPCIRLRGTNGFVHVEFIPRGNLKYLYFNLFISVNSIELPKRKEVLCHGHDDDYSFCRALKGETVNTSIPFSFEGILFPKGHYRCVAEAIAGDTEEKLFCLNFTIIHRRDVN
T2 sequence (P22366 whole entry, further chain): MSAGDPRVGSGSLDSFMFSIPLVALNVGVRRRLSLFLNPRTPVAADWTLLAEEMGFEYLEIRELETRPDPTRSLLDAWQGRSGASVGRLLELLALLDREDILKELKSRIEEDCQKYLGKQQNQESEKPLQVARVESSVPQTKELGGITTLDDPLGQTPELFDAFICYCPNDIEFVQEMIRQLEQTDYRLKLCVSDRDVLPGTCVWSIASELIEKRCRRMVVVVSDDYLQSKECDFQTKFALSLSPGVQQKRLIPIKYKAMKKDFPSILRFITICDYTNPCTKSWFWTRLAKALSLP
T2 sequence (Q8CFA1 whole entry, further chain): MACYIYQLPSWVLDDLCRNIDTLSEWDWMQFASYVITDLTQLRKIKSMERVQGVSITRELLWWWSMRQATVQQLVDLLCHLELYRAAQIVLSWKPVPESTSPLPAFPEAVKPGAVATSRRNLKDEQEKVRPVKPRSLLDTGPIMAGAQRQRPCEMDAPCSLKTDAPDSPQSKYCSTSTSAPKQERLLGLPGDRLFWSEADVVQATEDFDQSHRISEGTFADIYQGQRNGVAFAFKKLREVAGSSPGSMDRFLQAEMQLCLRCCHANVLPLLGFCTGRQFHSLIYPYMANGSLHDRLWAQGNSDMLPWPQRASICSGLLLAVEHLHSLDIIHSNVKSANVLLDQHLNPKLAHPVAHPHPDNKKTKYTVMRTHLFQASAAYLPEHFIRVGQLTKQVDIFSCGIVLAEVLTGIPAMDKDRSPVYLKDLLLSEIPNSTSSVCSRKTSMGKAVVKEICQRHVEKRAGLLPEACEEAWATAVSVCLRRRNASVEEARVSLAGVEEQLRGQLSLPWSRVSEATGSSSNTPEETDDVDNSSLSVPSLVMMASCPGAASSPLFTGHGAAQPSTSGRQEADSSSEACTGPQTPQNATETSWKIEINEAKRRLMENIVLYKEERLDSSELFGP
Experimental: For isolation of protein complexes associated with activated TLRs, cells were lysed using a modified lysis buffer containing 50 mM HEPES, 150 mM NaCl, 0.5% DDM (n-Dodecyl-β-D-Maltoside), 0.05% CHS (cholesteryl hemisuccinate). This buffer is suitable for the isolation of membrane protein complexes. 0.5 μg of biotinylated anti-TLR4 (Sal5-21) antibody was used (per sample) to capture the TLR4 signaling complex with streptavidin agarose. 15 μl (bed volume) of anti-HA agarose was used (per sample) to capture the TLR9-HA signaling complex. Immunoprecipitates were washed 3 times with the modified lysis buffer and analyzed by western blot.

Molecule: OCC1OC(O)CC(O)C1O (stereo not shown) [2-DG]
- cytokine gene transcription versus translation (glycolysis): uncoupled cytokine gene transcription from translation
- host responses at the receptor proximal (glycolysis): did not affect
- TLR-induced ECAR increase (primary BMDMs [1]): blocked

Molecule: O=C(NCCCNc1nc(Nc2cccc(NC(=O)N3CCCC3)c2)ncc1I)c1cccs1 [BX795]
- TLR-induced ECAR increase (primary BMDMs [1]): dampened

Molecule: CC(C)S(=O)(=O)c1ccc2nccc(Nc3ccc4scnc4c3)c2c1 [GSK872]
- morphological changes of TLR-stimulated MyD88-RIP3 cells with inhibitor pre-treatment ([2]; GSK872 2.5 μM): could be suppressed
- TLR-induced LDH release (cell death) with inhibitor (Myd88-/-/Trif-/- iBMDMs): blocked
- TLR-induced PI staining (membrane rupture) with inhibitor (Myd88-/-/Trif-/- iBMDMs): blocked

Molecule: O=C(NCCCNc1nc(Nc2cccc(CN3CCOCC3)c2)ncc1C1CC1)C1CCC1 [MRT67307]
- TLR-induced ECAR increase (primary BMDMs [1]): dampened

Molecule: CN1C(=O)C(Cc2c[nH]c3ccccc23)NC1=S (stereo not shown) [Nec-1]
- prevention of ZVAD plus LPS induced necroptosis (primary BMDMs [3]; primary BMDMs): could be prevented
- TLR-induced LDH release (cell death) with inhibitor (Myd88-/-/Trif-/- iBMDMs): unaffected
- TLR-induced PI staining (membrane rupture) with inhibitor (Myd88-/-/Trif-/- iBMDMs): unaffected

Molecule: CCOCc1nc2c(N)nc3ccccc3c2n1CC(C)(C)O [R848]
- TBK1 activation (pTBK1) (TBK1): activated
- ECAR (primary BMDMs [1]): increased ECAR rapidly
- mitochondrial oxygen consumption (OCR) (primary BMDMs [1]): without causing discernible changes
- AKT phosphorylation (AKT): induced AKT phosphorylation

Molecule: COC(=O)C[C@H](NC(=O)[C@H](C)NC(=O)[C@@H](NC(=O)OCc1ccccc1)C(C)C)C(=O)CF [ZVAD] (Cbz-Val-Ala-Asp(OMe)-CH2F)
- necroptosis (LDH release) of primary BMDMs (primary BMDMs [3]; ZVAD 10 μM pre-treatment followed by LPS): induced necroptosis
- TLR-induced LDH release (cell death) with inhibitor (Myd88-/-/Trif-/- iBMDMs): failed to prevent
- TLR-induced PI staining (membrane rupture) with inhibitor (Myd88-/-/Trif-/- iBMDMs): failed to prevent

Molecule: Cc1c2oc3c(C)ccc(C(=O)N[C@@H]4C(=O)N[C@H](C(C)C)C(=O)N5CCC[C@H]5C(=O)N(C)CC(=O)N(C)[C@@H](C(C)C)C(=O)O[C@@H]4C)c3nc-2c(C(=O)N[C@@H]2C(=O)N[C@H](C(C)C)C(=O)N3CCC[C@H]3C(=O)N(C)CC(=O)N(C)[C@@H](C(C)C)C(=O)O[C@@H]2C)c(N)c1=O [actinomycin D] (I: T[dV]P[Sar][NMeV] / II: T[dV]P[Sar][NMeV]; ester I:1-I:C, II:1-II:C; linker I:N-II:N via Actinocin(9to1))
- TLR-induced transcription of Il-1b and Il-6 [4]: prevented
- TLR-induced ECAR increase (primary BMDMs [1]): still able to increase ECAR

Molecule: CN[C@@H]1C[C@H]2O[C@@](C)([C@@H]1OC)n1c3ccccc3c3c4c(c5c6ccccc6n2c5c31)C(=O)NC4 [staurosporine]
- cell morphology ([2]; 1 hr post-stimulation, TLR ligands or staurosporine 1 μM): membrane blebbing, generation of apoptotic bodies/vesicles
- PARP cleavage (PARP): induced PARP cleavage

Molecule: coumermycin [CM]
- myddosome formation (myddosome): induced myddosome formation
- p38 activation (nuclear staining pattern) (myddosome; 30 min): clearly activated
- pTBK1 staining of MyD88 specks (myddosome; 30 min): stained positive for pTBK1
- phosphorylated p38 (pp38) within MyD88 specks (myddosome; 30 min): not detected within MyD88 specks
- cells with distinct MyD88 specks (myddosome; 30 min, immunofluorescence): more than 60%
- Il-1b expression (myddosome; 4 hr, qPCR): comparable to that induced by LPS and P3C treatment

Molecule: lipopolysaccharide [LPS]
- TBK1 activation (pTBK1) (TBK1): activated
- IRF3 activation (pIRF3) (IRF3): activated
- ECAR (primary BMDMs [1]): increased ECAR rapidly
- mitochondrial oxygen consumption (OCR) (primary BMDMs [1]): without causing discernible changes
- AKT phosphorylation (AKT): induced
- recruitment of endogenous MyD88, IRAK2 and IRAK4 to TLR4 (TLR4): inducibly recruited
